Assay results taken from patent publication US12528782B2, “Prodrugs in the modulation of interleukin” (BRISTOL-MYERS SQUIBB COMPANY, priority 2019, dated 2026).

Assay: PK in rats after PO dosing of the prodrug of Example 1: circulating parent Compound I and prodrug
Format: in vivo
Conditions: for AUC / Cmax / Tmax: rat, in vivo, analyte = labelled substance
[1] = 150 mg/kg, Example 1 dosed PO at 150 mpk
[2] = 5 mg/kg, Example 1 dosed PO at 5 mpk
[3] = 25 mg/kg, Example 1 dosed PO at 25 mpk

AUC Multiple+ (Example 1 dosed PO at 5 mpk) [X]	AUC Multiple+ (Example 1 dosed PO at 25 mpk) [X]	AUC Multiple+ (Example 1 dosed PO at 150 mpk) [X]	AUC [2] [µM·h]	Cmax [2] [µM]	Tmax [2] [h]	AUC [3] [µM·h]	Cmax [3] [µM]	Tmax [3] [h]	SMILES	circulating prodrug as % of parent (PO, 150 mpk dose)	exposure to the prodrug (circulating prodrug following administration) (PO, therapeutic doses (5 and 25 mpk))	AUC [1] [µM·h]	Cmax [1] [µM]	Tmax [1] [h]
									[2H]C([2H])([2H])NC(=O)c1cn(COP(=O)([O-])[O-])/c(=N/C(=O)C2CC2)cc1Nc1cccc(-c2nnn(C)n2)c1OC.[Na+].[Na+] [Example 1]	less than 0.05%	no exposure	0.33 ± 0.21	0.69 ± 0.24	0.25
11	57	473	19.2 ± 1.7	4.91 ± 1.4	0.5	96.9 ± 13.2	13 ± 1.4	3	[2H]C([2H])([2H])NC(=O)c1cnc(NC(=O)C2CC2)cc1Nc1cccc(-c2nnn(C)n2)c1OC [Compound I]			804 ± 26.9	58.2 ± 5.7	3
